Assay results reported in US10874644B2, “Therapeutic approaches for treating Alzheimer disease and related disorders through a modulation of synapse function” (Pharnext, priority 2008, dated 2020).

Assays:
[1] = system: rat primary cortical neurons; assay: LDH release in human Aβ1-42 toxicity on rat primary cortical cells; type: cell-based; details: 1 h pre-treatment, Aβ1-42 10 μM for 24 h
Procedure: Primary rat cortical neurons are cultured as described previously. […] The control medium was prepared in the same conditions.
Cortical neurons were intoxicated for 24 hours. Three separate cultures were performed per condition, 6 wells per condition.
This colorimetric assay for the quantification of cell toxicity is based on the measurement of lactate dehydrogenase (LDH) activity released from the cytosol of dying cells into the supernatant.

[2] = system: rat primary cortical neurons; assay: Neurite outgrowth (neurites length) in beta-amyloid Aβ25-35 intoxicated rat primary cortical neuron culture; type: cell-based; details: Aβ25-35 20 μM for 2 days, drug added 1 hour before, Fig. 1A, 1B
Description: Viable cells are counted in a Neubauer cytometer using the trypan blue exclusion test.

NS(=O)(=O)Cc1noc2ccccc12 [Zonisamide]
Prevention of Aβ1-42 intoxication, change of LDH release ([1]; Fig. 3B, 3C): −75% | Prevention of Aβ25-35 intoxication (neurite outgrowth, neurites length) [2]: significantly prevented

CC(=O)NCCCS(=O)(=O)O [Acamprosate]
Prevention of Aβ25-35 intoxication (neurite outgrowth, neurites length) [2]: significantly prevented

B1: BDNF: Brain-derived neurotrophic factor, used as a positive (neuroprotective) control (protein, UniProt P23560 19-247, looked up)
Neurotrophic factor BDNF …: APMKEANIRGQGGLAYPGVRTHGTLESVNGPKAGSRGLTSLADTFEHVIEELLDEDQKVRPNEENNKDADLYTSRVMLSSQVPLEPPLLFLLEEYKNYLDAANMSMRVRRHSDPARRGELSVCDSISEWVTAADKKTAVDMSGGTVTVLEKVPVSKGQLKQYFYETKCNPMGYTKEGCRGIDKRHWNSQCRTTQSYVRALTMDSKKRIGWRFIRIDTSCVCTLTIKRGR
Protection from Aβ1-42 amyloid injury (LDH release) ([1]; Fig. 3A): significantly protected | Prevention of Aβ25-35 intoxication (neurite outgrowth, neurites length) [2]: efficiently prevented
